Results on 2 compounds are retold here after patent US20140073628A1, “BENZOXAZEPINES ASN INHIBITORS OF P13K/M TOR AND METHODS OF THEIR USE AND MANUFACTURE” (priority 2010, published 2014).

The structures appear in SMILES notation.

For one assay, the target named is mTOR/GbL/Raptor (mTORC1) (Homo sapiens, UniProt P42345). Kind of assay: mTOR/GbL/Raptor (mTORC1) ELISA assay. The format is biochemical. To be noted: phosphorylation of 4E-BP1; 0.2 nM mTORC1, 10 μM ATP, 50 nM NHis-tagged 4E-BP1. As for the experimental part:
mTOR/GbL/Raptor (mTORC1) ELISA Assay
The measurement of mTORC1 enzyme activity was performed in an ELISA assay format following the phosphorylation of 4E-BP1 protein. All experiments were performed in the 384-well format. Generally, 0.5 μL DMSO containing varying concentrations of the test compound was mixed with 15 μL enzyme solution. Kinase reactions were initiated with the addition of 15 μL of substrates-containing solution. The assay conditions were as follows; 0.2 nM mTORC1, 10 μM ATP and 50 nM NHis-tagged 4E-BP1 in 20 mM Hepes, pH 7.2, 1 mM DTT, 50 mM NaCl, 10 mM MnCl2, 0.02 mg/mL BSA, 0.01% CHAPS, 50 mM β-glycerophosphate. Following an incubation of 120 minutes at ambient temperature, 20 μL of the reaction volume was transferred to a Ni-Chelate-coated 384-well plate. The binding step of the 4E-BP1 protein proceeded for 60 minutes, followed by washing 4 times each with 50 μL of Tris-buffered saline solution (TBS). Anti-phospho-4E-BP1 rabbit-IgG (20 μL, 1:5000) in 5% BSA-TBST (0.2% Tween-20 in TBS) was added and further incubated for 60 minutes. Incubation with a secondary HRP-tagged anti-IgG was similarly performed after washing off the primary antibody (4 washes of 50 μL). Following the final wash step with TBST, 20 μL of SuperSignal ELISA Femto (Pierce Biotechnology) was added and the luminescence measured using an EnVision plate reader.

The next assay concerns the target PI3Kα (Homo sapiens, UniProt P42336). Kind of assay: PI3K biochemical assay (PI3K-alpha, luciferase-luciferin ATP consumption). To be noted: 3 nM enzyme, 1 μM ATP, 10 μM PIP2; percent of ATP consumed. As for the experimental part: PI3Kα activity was measured as the percent of ATP consumed following the kinase reaction using luciferase-luciferin-coupled chemiluminescence. Reactions were conducted in 384-well white, medium binding microtiter plates (Greiner). Kinase reactions were initiated by combining test compounds, ATP, substrate (PIP2), and kinase in a 20 μL volume in a buffer solution. The standard PI3Kalpha assay buffer was composed 50 mM Tris, pH 7.5, 1 mM EGTA, 10 mM MgCl2, 1 mM DTT and 0.03% CHAPS. The standard assay concentrations for enzyme, ATP, and substrate were 3 nM, 1 μM, and 10 μM, respectively. The reaction mixture was incubated at ambient temperature for approximately 2 h. Following the kinase reaction, a 10 μL aliquot of luciferase-luciferin mix (Promega Kinase-Glo) was added and the chemiluminescence signal measured using a Victor2 or EnVision (Perkin Elmer). Total ATP consumption was limited to 40-60% and IC50 values of control compounds correlate well with literature references. Substituting PI3Kα with PI3Kβ, PI3Kγ, or […], the inhibitory activity of the compounds for the other isoforms of PI3K were measured. For the PI3Kβ and PI3Kδ assays, enzyme concentrations were 10 nM and 4 nM, respectively. For the PI3Kγ assay, enzyme concentration was 40 nM, the incubation time was 1 h, and the concentration of MgCl2 in the assay buffer was 5 mM.

Sequence of PI3Kα (P42336 whole entry): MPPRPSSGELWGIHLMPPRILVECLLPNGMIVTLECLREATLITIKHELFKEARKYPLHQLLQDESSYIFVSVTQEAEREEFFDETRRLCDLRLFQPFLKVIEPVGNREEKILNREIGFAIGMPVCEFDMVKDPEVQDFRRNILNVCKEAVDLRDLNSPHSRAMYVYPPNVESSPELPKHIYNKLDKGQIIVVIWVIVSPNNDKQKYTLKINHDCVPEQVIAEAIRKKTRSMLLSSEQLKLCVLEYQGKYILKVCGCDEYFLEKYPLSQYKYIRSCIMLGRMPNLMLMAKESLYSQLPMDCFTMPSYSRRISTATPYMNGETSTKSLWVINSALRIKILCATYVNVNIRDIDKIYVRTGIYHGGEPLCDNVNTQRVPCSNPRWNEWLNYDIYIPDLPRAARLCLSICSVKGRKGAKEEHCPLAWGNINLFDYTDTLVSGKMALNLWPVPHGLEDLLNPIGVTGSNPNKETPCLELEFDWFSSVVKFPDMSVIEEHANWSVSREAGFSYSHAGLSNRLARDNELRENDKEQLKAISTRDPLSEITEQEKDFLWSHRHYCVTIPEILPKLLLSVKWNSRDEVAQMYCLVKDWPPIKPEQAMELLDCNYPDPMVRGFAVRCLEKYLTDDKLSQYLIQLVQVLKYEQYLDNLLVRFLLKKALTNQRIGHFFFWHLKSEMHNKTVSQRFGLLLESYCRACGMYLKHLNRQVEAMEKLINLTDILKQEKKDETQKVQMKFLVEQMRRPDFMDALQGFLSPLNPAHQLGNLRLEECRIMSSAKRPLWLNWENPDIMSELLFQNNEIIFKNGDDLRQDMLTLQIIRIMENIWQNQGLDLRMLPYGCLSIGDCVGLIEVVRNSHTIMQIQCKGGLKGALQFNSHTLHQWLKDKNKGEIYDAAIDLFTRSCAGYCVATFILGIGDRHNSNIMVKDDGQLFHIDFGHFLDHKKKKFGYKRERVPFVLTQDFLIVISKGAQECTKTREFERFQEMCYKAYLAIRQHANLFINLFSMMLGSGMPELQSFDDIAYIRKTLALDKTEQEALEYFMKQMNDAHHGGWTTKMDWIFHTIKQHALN
Sequence of PI3Kα (P27986 whole entry partner): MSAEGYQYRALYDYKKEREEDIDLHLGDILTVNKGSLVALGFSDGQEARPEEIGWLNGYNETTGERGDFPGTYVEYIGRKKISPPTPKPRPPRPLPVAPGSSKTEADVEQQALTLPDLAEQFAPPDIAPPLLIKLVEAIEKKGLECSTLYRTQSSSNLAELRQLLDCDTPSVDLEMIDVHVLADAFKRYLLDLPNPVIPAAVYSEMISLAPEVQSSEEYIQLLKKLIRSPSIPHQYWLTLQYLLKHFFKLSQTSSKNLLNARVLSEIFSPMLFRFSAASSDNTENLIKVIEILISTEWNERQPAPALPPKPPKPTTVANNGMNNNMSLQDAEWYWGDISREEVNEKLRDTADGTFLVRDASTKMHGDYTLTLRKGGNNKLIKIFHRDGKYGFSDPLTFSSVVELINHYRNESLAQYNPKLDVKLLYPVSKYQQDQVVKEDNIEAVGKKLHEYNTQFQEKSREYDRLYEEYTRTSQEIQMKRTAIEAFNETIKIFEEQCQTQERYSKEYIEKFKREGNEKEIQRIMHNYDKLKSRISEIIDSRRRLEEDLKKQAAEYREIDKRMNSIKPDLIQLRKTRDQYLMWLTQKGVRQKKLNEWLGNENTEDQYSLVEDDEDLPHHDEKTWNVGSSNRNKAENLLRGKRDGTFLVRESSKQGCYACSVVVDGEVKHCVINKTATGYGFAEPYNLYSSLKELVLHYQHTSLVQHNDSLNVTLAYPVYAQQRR

Turning to `Cc1nc2cc(-c3ccc4c(c3)CN(c3nc(NC(C)C)nc(C)c3Cc3ccc(F)cc3)CCO4)ccc2[nH]1` [Compound 19, 5-[(4-fluorophenyl)methyl]-4-methyl-6-[7-(2-methyl-1H-benzimidazol-5-yl)-2,3-dihydro-1,4-benzoxazepin-4(5H)-yl]-N-(1-methylethyl)pyrimidin-2-amine], the IC50 fell in the range of 100 to 500 nM at mTOR/GbL/Raptor (mTORC1) and 500 to 2500 nM on PI3Kα.

Consider `Cc1cc(N2CCOc3ccc(-c4ccc5[nH]cnc5c4)cc3C2)nc(N)n1` [Compound 43, 4-[7-(1H-benzimidazol-5-yl)-2,3-dihydro-1,4-benzoxazepin-4(5H)-yl]-6-methylpyrimidin-2-amine], for which the IC50 at mTOR/GbL/Raptor (mTORC1) and against PI3Kα was 500 to 2500 nM throughout.
